Laboratory results reported in patent publication US6420367B1, “Pyrimidine derivatives exhibiting antitumor activity” (Shionogo & Co., Ltd., priority 1998, dated 2002).
Values after ≈ are worked out from the molar mass of the structure shown.

Columns and labels:
[1] = tested on: human colon cancer HT29; experiment: In vitro cell growth inhibition test, MTT assay; type: cell-based; conditions: MTT assay 4 days after compound addition
Excerpt: (§1) Test Example 2 In Vitro Cell Growth Inhibition Test Cells and MTT Assay
(§2) Human squamous lung cancer […], human squamous lung cancer Ma44, human lung adenocarcinoma A549, human colon cancer HT29 and human pancreas cancer PANC-1 were used.

[2] = tested on: human lung adenocarcinoma A549; experiment: In vitro cell growth inhibition test, MTT assay; type: cell-based; conditions: MTT assay 4 days after compound addition
Excerpt: as §1, §2

[3] = tested on: human squamous lung cancer RERF-RC-AI; experiment: In vitro cell growth inhibition test, MTT assay; type: cell-based; conditions: MTT assay 4 days after compound addition
Excerpt: as §1, §2

[4] = tested on: DT-R cells (pRRE3-luc-transfected v-ki-ras-transformed NIH3T3 cells); signal derived from Ras oncogene products; experiment: Inhibitory effect against cellular signaling derived from Ras oncogene products: luciferase reporter, dissociation of DT-R from DT-C activity (MAC); type: cell-based, mouse; conditions: minimal tested concentration at which luciferase activities of DT-C cells and DT-R cells dissociated
Excerpt: Test Example 1 Inhibitory Effect Against Cellular Signaling Derived From Ras Oncogene Products
1) Establishment of Cell Lines Used in Assay
Based on the reporter plasmid (pGV-P (Toyo Ink, Japan)), in which luciferase gene was ligated to SV40-derived minimal promoter, we constructed a plasmid designated pRRE3-luc by inserting 3 copies of chemically synthesized oligonucleotides (Sequence: CAGGATATGACTCT, derived from mouse NVL-3 (M. A. Reddy et al.(1992)Mol. Endocrinol., 6, 1051)) into upstream of the promoter. v-ki-ras-transformed NIH3T3 cells (DT cells, provided by Dr. Makoto Noda (Kyoto Univ., School of medicine)) were transfected with this plasmid by liposome-mediated transfection and transfected cell lines stably incorporated and maintained each plasmid were obtained. We named pGV-P and pRRE3-transfected cell line as DT-C and DT-R, respectively and used in the assay described below.
2) Preparation of Samples
i) All the cell lines were cultured in Dulbecco's Modified Essential Medium (DMEM: 10% Fetal Calf Serum(FCS: Hyclone, USA)) including […] kanamycin (Meiji Seika, Japan) in humidified incubator under condition of 5% CO2 at 37° C.
ii) DT-C and DT-R cells were seeded at 2500 cells/well into flat-bottom 96 well multiplate (Sumitomo bakelite) and incubated for 24 hours.
iii) Test compounds were prepared as 1 mg/ml DMSO solution.
iv) The solution of test compounds were added to the culture. Tested compounds are used at the concentration from […] to 0.51 ng/ml with by 3-fold dilution.
v) After 24 hours, the culture supernatant was completely aspirated and […] of cell-lysing solution (PGC-50 (Toyo Ink, Japan)) was added before cells were dried up. In order to the cells were lysed completely, multiwell plates were left at room temperature for 10 to 30 min. The plates were wrapped up and stored at −20° C. till the day of measurement.
3) Measurement of Samples
i) Melt the samples by putting 96 well multiplate at 37° C. and add 90 μl/well 25 mM Tris (pH 7.5).
ii) Transfer 50 μl of the sample (110 μl) to the 96 well microplate for measurement (Microlite 1 (Dynatech)).
iii) Measure the samples by the luminometer, LUMINOUS CT9000D (Dia-Yatron, Japan). We used Pickagene luminescence kit PGL2000 or LT2.0 (Toyo Ink, Japan) as substrates for luminescence measurement (50 μl/well).
4) Judgment of the Results
i) The luciferase activity of DT-C cells and DT-R cells were plotted in the graph where the relative activity and the compound concentration were expressed as Y-axis and X-axis, respectively. We judged by the degree of dissociation between the activities of DT-C cells and DT-R cells as an index.
ii) Concretely, efficacy of the compound was expressed by two values described below.
a) Among the points of concentration tested, the minimal concentration (Minimal Active Concentration: MAC), at which the activities of DT-C cells and DT-R cells dissociated, was shown as an index of efficacy of the compound.

[5] = tested on: human squamous lung cancer Ma44; experiment: In vitro cell growth inhibition test, MTT assay; type: cell-based; conditions: MTT assay 4 days after compound addition
Excerpt: as §1, §2

[6] = tested on: human pancreas cancer PANC-1; experiment: In vitro cell growth inhibition test, MTT assay; type: cell-based; conditions: MTT assay 4 days after compound addition
Excerpt: as §1, §2

SMILES	IC50, HT29 [1]	IC50, A549 [2]	IC50, RERF-LC-AI [3]	MAC (Minimal Active Concentration) [4]	IC50, Ma44 [5]	IC50, PANC-1 [6]
CNC(N)=Nc1nc(C)ncc1CSc1nnc(-c2ccccc2N)o1.Cl.Cl [Compound A-5]	0.15 µg/mL	0.16 µg/mL	0.2 µg/mL	–	–	–
CCNC(N)=Nc1nc(C)ncc1CSc1nnc(-c2ccccc2N)o1 [Compound A-8]	0.008 µg/mL (≈ 0.0208 µM)	0.012 µg/mL (≈ 0.0312 µM)	0.01 µg/mL (≈ 0.026 µM)	–	–	–
CCCCNC(N)=Nc1nc(C)ncc1CSc1nnc(-c2ccccc2N)o1 [Compound A-9]	0.1 µg/mL (≈ 0.242 µM)	0.09 µg/mL (≈ 0.218 µM)	0.025 µg/mL (≈ 0.0606 µM)	–	–	–
Cc1ncc(CSc2nnc(-c3ccccc3N)o2)c(N=C(N)NCc2ccccc2)n1 [Compound A-12]	0.51 µg/mL (≈ 1.14 µM)	–	0.87 µg/mL (≈ 1.95 µM)	–	–	–
CCNC(N)=Nc1nc(C)ncc1CSc1nnc(-c2ccccc2NC(C)=O)o1 [Compound A-18]	–	–	0.0022 µg/mL (≈ 0.00516 µM)	–	–	–
CNC(N)=Nc1nc(C)ncc1CSc1nnc(-c2ccccc2NC(C)=O)o1 [Compound A-19]	–	–	0.02 µg/mL (≈ 0.0485 µM)	–	–	–
CCC(=O)Nc1ccccc1-c1nnc(SCc2cnc(C)nc2N=C(N)NC)o1 [Compound A-20]	–	–	0.02 µg/mL (≈ 0.0469 µM)	–	–	–
CCNC(=Nc1nc(C)ncc1CSc1nnc(-c2ccccc2)o1)NC [Compound A-21]	–	–	0.02 µg/mL (≈ 0.0522 µM)	–	–	–
CCNC(N)=Nc1nc(C)ncc1CSc1nnc(-c2ccccc2NC(=O)CC)o1 [Compound A-22]	–	–	0.02 µg/mL (≈ 0.0454 µM)	–	–	–
CCNC(=Nc1nc(C)ncc1CSc1nnc(-c2ccccc2NC(=O)CC)o1)NC [Compound A-23]	–	0.041 µg/mL (≈ 0.0902 µM)	0.0078 µg/mL (≈ 0.0172 µM)	0.123 µg/mL	0.025 µg/mL (≈ 0.055 µM)	–
CCNC(=Nc1nc(C)ncc1CSc1nnc(-c2ccccc2NC(C)=O)o1)NCC [Compound A-25]	–	0.032 µg/mL (≈ 0.0704 µM)	0.0078 µg/mL (≈ 0.0172 µM)	0.370 µg/mL	0.031 µg/mL (≈ 0.0682 µM)	–
CCNC(=Nc1nc(C)ncc1CSc1nnc(-c2ccccc2O)o1)NC [Compound A-27]	–	0.69 µg/mL (≈ 1.73 µM)	0.079 µg/mL (≈ 0.198 µM)	–	1 µg/mL (≈ 2.5 µM)	–
CCNC(=Nc1nc(C)ncc1CSc1nnc(-c2ccccc2NC)o1)NC [Compound A-38]	0.023 µg/mL (≈ 0.0558 µM)	–	0.014 µg/mL (≈ 0.0339 µM)	0.0412 µg/mL	0.034 µg/mL (≈ 0.0824 µM)	0.028 µg/mL (≈ 0.0679 µM)
CCNC(=Nc1nc(C)ncc1CSc1nnc(-c2ccccc2NCC)o1)NC [Compound A-40]	0.049 µg/mL (≈ 0.115 µM)	–	–	0.370 µg/mL	0.071 µg/mL (≈ 0.166 µM)	–
CCNC(=Nc1nc(C)ncc1CSc1nnc(-c2cccc(N)c2)o1)NCC [Compound A-41]	0.072 µg/mL (≈ 0.175 µM)	–	–	–	0.065 µg/mL (≈ 0.158 µM)	–
CCNC(=Nc1nc(C(F)(F)F)ncc1CSc1nnc(-c2ccccc2N)o1)NCC [Compound A-46]	0.32 µg/mL (≈ 0.686 µM)	–	0.14 µg/mL (≈ 0.3 µM)	–	1.8 µg/mL (≈ 3.86 µM)	–
CCNC(=Nc1nc(C)ncc1CSc1nnc(-c2cc(F)ccc2N)o1)NCC [Compound A-50]	0.09 µg/mL (≈ 0.209 µM)	–	0.047 µg/mL (≈ 0.109 µM)	–	0.26 µg/mL (≈ 0.604 µM)	–
CCNC(=Nc1nc(C)ncc1CSc1nnc(-c2ccc(NC(C)=O)cc2)o1)NCC [Compound A-56]	–	0.18 µg/mL (≈ 0.396 µM)	–	–	0.85 µg/mL (≈ 1.87 µM)	0.085 µg/mL (≈ 0.187 µM)

SMILES	IC50, HT29 [1]	IC50, A549 [2]	IC50, RERF-LC-AI [3]	MAC (Minimal Active Concentration) [4]	IC50, Ma44 [5]	IC50, PANC-1 [6]
CCNC(=Nc1nc(C)ncc1CSc1nnc(-c2ccc(Cl)cc2)o1)NCC [Compound A-62]	–	–	0.0078 µg/mL (≈ 0.0181 µM)	0.0412 µg/mL	0.024 µg/mL (≈ 0.0556 µM)	0.017 µg/mL (≈ 0.0394 µM)
CCNC(=Nc1ncncc1CSc1nnc(-c2ccc(NC)cc2)o1)NCC [Compound A-66]	0.067 µg/mL (≈ 0.162 µM)	0.036 µg/mL (≈ 0.0873 µM)	0.05 µg/mL (≈ 0.121 µM)	–	1.8 µg/mL (≈ 4.36 µM)	0.17 µg/mL (≈ 0.412 µM)
CCNC(=Nc1nc(C)ncc1CSc1nnc(-c2ccc(OCC)cc2)o1)NCC [Compound A-101]	0.052 µg/mL (≈ 0.118 µM)	0.79 µg/mL (≈ 1.79 µM)	–	–	0.21 µg/mL (≈ 0.476 µM)	0.077 µg/mL (≈ 0.174 µM)
CCNC(=Nc1nc(C)ncc1CSc1nnc(-c2ccc(I)cc2)o1)NCC [Compound A-105]	0.064 µg/mL (≈ 0.122 µM)	0.11 µg/mL (≈ 0.21 µM)	–	–	0.091 µg/mL (≈ 0.174 µM)	0.086 µg/mL (≈ 0.164 µM)
C=C(Br)CNC(=Nc1ncncc1CSc1nnc(-c2ccc(N)cc2)o1)NCC [Compound A-111]	0.035 µg/mL (≈ 0.0715 µM)	0.097 µg/mL (≈ 0.198 µM)	0.017 µg/mL (≈ 0.0347 µM)	0.123 µg/mL	0.4 µg/mL (≈ 0.817 µM)	–
CCNC(=Nc1ncncc1CSc1nnc(-c2ccc(N)cc2)o1)NCCO [Compound A-113]	0.076 µg/mL (≈ 0.183 µM)	0.62 µg/mL (≈ 1.5 µM)	0.027 µg/mL (≈ 0.0651 µM)	–	1.2 µg/mL (≈ 2.9 µM)	–
CCNC(=Nc1ncncc1CSc1nnc(-c2ccc(CC)cc2)o1)NCC [Compound A-114]	0.045 µg/mL (≈ 0.109 µM)	0.32 µg/mL (≈ 0.778 µM)	0.029 µg/mL (≈ 0.0705 µM)	1.11 µg/mL	0.83 µg/mL (≈ 2.02 µM)	–
CCNC(=Nc1ncncc1CSc1nnc(-c2ccc(C(C)C)cc2)o1)NCC [Compound A-115]	0.065 µg/mL (≈ 0.153 µM)	4.6 µg/mL (≈ 10.8 µM)	0.43 µg/mL (≈ 1.01 µM)	–	5.8 µg/mL (≈ 13.6 µM)	–
CCCc1ccc(-c2nnc(SCc3cncnc3N=C(NCC)NCC)o2)cc1 [Compound A-116]	0.072 µg/mL (≈ 0.169 µM)	3.8 µg/mL (≈ 8.93 µM)	0.62 µg/mL (≈ 1.46 µM)	–	4.2 µg/mL (≈ 9.87 µM)	–
CCNC(=Nc1ncncc1CSc1nnc(-c2ccc(C(C)=O)cc2)o1)NCC [Compound A-117]	0.017 µg/mL (≈ 0.04 µM)	1.1 µg/mL (≈ 2.59 µM)	0.16 µg/mL (≈ 0.376 µM)	–	8.6 µg/mL (≈ 20.2 µM)	–
CCNC(=Nc1ncncc1CSc1nnc(-c2ccc([N+](=O)[O-])cc2Cl)o1)NCC [Compound A-126]	0.014 µg/mL (≈ 0.0302 µM)	0.028 µg/mL (≈ 0.0605 µM)	0.012 µg/mL (≈ 0.0259 µM)	0.0137 µg/mL	0.17 µg/mL (≈ 0.367 µM)	–
CCCNC(=Nc1nc(C)ncc1CSc1nnc(-c2ccc(N)cc2OC)o1)NCCC [Compound A-156]	0.023 µg/mL (≈ 0.0489 µM)	–	0.016 µg/mL (≈ 0.034 µM)	–	0.072 µg/mL (≈ 0.153 µM)	0.025 µg/mL (≈ 0.0531 µM)
CNC(=Nc1nc(C)ncc1CSc1nnc(-c2ccc([N+](=O)[O-])cc2)o1)NC.Cl [Compound A-159]	–	–	–	0.0412 µg/mL	–	–
CCNC(=Nc1ncncc1CSc1nnc(-c2ccc([N+](=O)[O-])cc2)o1)N(C)C [Compound A-190]	–	–	–	0.0412 µg/mL	–	–
CCNC(=Nc1nc(C)ncc1COc1nnc(-c2ccccc2N)o1)NC [Compound B-2]	–	–	–	0.370 µg/mL	–	–
CCNC(=Nc1ncncc1CSc1nnc(-c2cnc(C)cn2)o1)NCC [Compound D-32]	0.013 µg/mL (≈ 0.0325 µM)	3.5 µg/mL (≈ 8.76 µM)	0.013 µg/mL (≈ 0.0325 µM)	–	3.1 µg/mL (≈ 7.76 µM)	–
CCNC(=Nc1ncncc1CSc1nnc(-c2ccc(-n3cccc3)nc2)o1)NCC [Compound D-35]	0.025 µg/mL (≈ 0.0556 µM)	4.6 µg/mL (≈ 10.2 µM)	2.5 µg/mL (≈ 5.56 µM)	–	1.5 µg/mL (≈ 3.34 µM)	–
